Test results reported in patent US12357608B2, “Methods and compositions utilizing RRx-001 combination therapy for radioprotection” (priority 2018, dated 2025).

How the values were obtained:
superoxide dismutase = test: Superoxide dismutase activity assay in hMSC; assay type: cell-based, human; conditions: 5 mM RRx-001 16 hours; 8 hours after 10 Gy irradiation
Method: The activity of superoxide dismutase activity was also assayed in hMSC. hMSC were treated for 16 hours with […] RRx-001 or vehicle, irradiated at 10 Gy or sham-irradiated and whole cell homogenate collected according to the manufacture's protocol. The assay measures the activity of all three forms of SOD. The amount of SOD activity (U/mL) was normalized to protein levels.

THP-1 cells = test: Western blotting of ARE proteins in THP-1 monocytes and macrophages; assay type: cell-based, human; conditions: THP-1 macrophages; 3 mM RRx-001 16 hours
Method: (§1) Expression of ARE proteins was assayed in hMSC, macrophages, and monocytes following in vitro irradiation of the cells, which were pretreated with RRx-001 or vehicle. Protein expression was assayed by Western blotting and protein quantification.
(§2) hMSC were treated for 16 hours with […] RRx-001 or the vehicle control (0.05% DMSO), irradiated at 10 Gy or sham-irradiated and the protein collected 8 or 24 hours post-sham or irradiation. Human monocytic leukemic THP-1 and U937 cells were differentiated into macrophages with 50 nM Phorbol 12-myristate 13-acetate (PMA) for 24 hours before treatment. Differentiated and non-differentiated cells were treated with […] RRx-001 or 0.05% DMSO (vehicle control) for 16 hours prior to radiation. The cells were irradiated at 5 Gy or sham-irradiated and collected 4-8 hours later for both analysis. For each experiment, duplicates of each sample were run.

U937 cells = test: Western blotting of ARE proteins in U937 monocytes and macrophages; assay type: cell-based, human; conditions: 3 mM RRx-001 16 hours
Method: as §1, §2

[1] = test system: human normal bone marrow mesenchymal stem cells (hMSC); test: Western blotting of antioxidant response element (ARE) proteins in irradiated hMSC; assay type: cell-based; conditions: 5 mM RRx-001 16 hours
Method: Antioxidant response element (ARE) genes such as heme oxygenase 1 (HO-1), NAD(P)H Dehydrogenase [Quinone] 1 (NQO-1) and Superoxide Dismutase (SOD) are involved in the detoxification and elimination of reactive oxidants.
as §1, §2

## O=C(CBr)N1CC([N+](=O)[O-])([N+](=O)[O-])C1 [RRx-001, 2-bromo-1-(3,3-dinitroazetidin-1-yl)ethan-1-one]
Superoxide dismutase
  Superoxide Dismutase Activity: did not increase
THP-1 cells
  HO-1 expression: no significant increase in HO-1
U937 cells; U937 macrophages
  NQO-1 expression: no change
  SOD-1 expression: no change
U937 cells; U937 macrophages, sham and irradiated groups
  HO-1 production: increased HO-1 production
U937 cells; U937 monocyte fraction
  HO-1 expression: significant increase in HO-1
[1]; 10 Gy irradiation, 8 hours
  SOD1 and 2 expression: slight increase
[1]; 24 hours post-sham or irradiation
  HO-1 expression increase: 2-3.5 fold
[1]; all groups
  NQO-1 expression: slightly reduced
[1]; sham and 10 Gy irradiated groups, 8 hours post-sham or irradiation
  HO-1 expression increase: 22-26 fold
